In data set [1] the test system is Human primary foreskin fibroblasts (BJ fibroblasts). Put plainly: Innate immune response transcripts in BJ fibroblasts, single transfection (qPCR). Format: cell-based. The settings on record: 250 ng, 18 hours. The method, then: The cells were harvested after 18 hours, the total RNA was isolated and DNASE® treated using the RNeasy micro kit (catalog #74004) following the manufacturer's protocol. 100 ng of total RNA was used for cDNA synthesis using High Capacity cDNA Reverse Transcription kit (catalog #4368814) following the manufacturer's protocol. The cDNA was then analyzed for the expression of innate immune response genes by quantitative real time PCR using SybrGreen in a Biorad CFX 384 instrument following manufacturer's protocol. […] In the table, the panel of standard metrics includes: RIG-I is retinoic acid inducible gene 1, IL6 is interleukin-6, OAS-1 is oligoadenylate synthetase 1, IFNb is interferon-beta, AIM2 is absent in melanoma-2, IFIT-1 is interferon-induced protein with tetratricopeptide repeats 1, PKR is protein kinase R, TNFa is tumor necrosis factor alpha and IFNa is interferon alpha.
In general terms: Quantitative PCR measures a nucleic acid by following its amplification.

In a further data set the test system is rat myoblast (L6 line). Put plainly: Example 44 signal sequence exchange study, secreted G-CSF ELISA. Format: cell-based. The settings on record: RM, 250 ng modified mRNA, supernatant after 24 hrs. An excerpt: (§1) These variants included the G-CSF constructs encoding either the wild-type N terminal secretory signal peptide sequence ([…]; SEQ ID NO: 21), no secretory signal peptide sequence, or secretory signal peptide sequences taken from other mRNAs. These included sequences where the wild type GCSF signal peptide sequence was replaced with the signal peptide sequence of either: human α-1-anti trypsin (AAT) ([…]; SEQ ID NO: 22), human Factor IX (FIX) ([…]; SEQ ID NO: 23), human Prolactin (Prolac) ([…]; SEQ ID NO: 24), or human Albumin (Alb) ([…]; SEQ ID NO: 25).
(§2) 250 ng of modified mRNA encoding each G-CSF variant was transfected into HEK293A (293A in the table), mouse myoblast (MM in the table) (C2C12, CRL-1772, ATCC) and rat myoblast (RM in the table) (L6 line, CRL-1458, ATCC) cell lines in a 24 well plate using 1 ul of Lipofectamine 2000 (Life Technologies), each well containing 300,000 cells. […] The data shown in Table 68 reveal that cells transfected with G-CSF mmRNA encoding the Albumin signal peptide secrete at least 12 fold more G-CSF protein than its wild type counterpart.
On the technique in general: In an ELISA, binding on a coated surface is turned into a signal by an enzyme label.

The next data set deals with mouse myoblast (C2C12). The description is as above. Format: cell-based. The settings on record: MM, 250 ng modified mRNA, supernatant after 24 hrs.
Description: as §1, §2

The next data set relates to HEK293A. The description is as above. Format: cell-based, human. The note with it: 293A, 250 ng modified mRNA, supernatant after 24 hrs.
Description: as §1, §2

The test system of another data set is HEK293 cells. Put plainly: In vitro expression of VEGF modified mRNA (ELISA). Format: cell-based.

As for “Natural Luciferase: natural luciferase mRNA SEQ ID NO: 16, Cap1”, in data set [1], the AIM2 transcript level is recorded as 0.251 fold-induction relative to HPRT, the IFIT-1 transcript level is on record as 151.218 fold-induction relative to HPRT, the IFNa transcript level is 0.067 fold-induction relative to HPRT and the IFNb transcript level is on record as 11.404 fold-induction relative to HPRT. For the same molecule, in data set [1], the IL6 transcript level is reported as 20.6 fold-induction relative to HPRT, the OAS-1 transcript level is recorded as 20.778 fold-induction relative to HPRT, the PKR transcript level is 16.001 fold-induction relative to HPRT and the RIG-I transcript level is given as 71.5 fold-induction relative to HPRT. For the same molecule, the TNFa transcript level in data set [1] was 0.526 fold-induction relative to HPRT.
As to Albumin, the results for the “secreted G-CSF protein” value with rat myoblast (L6 line), in the data set with mouse myoblast (C2C12) and in the data set with HEK293A were 173300 pg/mL, 81050 pg/mL and 122050 pg/mL, respectively.
With α-1-anti trypsin, the “secreted G-CSF protein” value in the data set on rat myoblast (L6 line) was found to be 8475 pg/mL; with mouse myoblast (C2C12), 5000 pg/mL; in the data set with HEK293A, 9950 pg/mL.
Prolactin: the “secreted G-CSF protein” value is 9800 pg/mL with rat myoblast (L6 line), 1525 pg/mL in the data set with mouse myoblast (C2C12) and 7875 pg/mL in the data set on HEK293A.

B1: VEGF-A: modified mRNA VEGF-A SEQ ID NO: 19, Cap1, fully modified with 5-methylcytosine and pseudouridine, Lipofectamine2000 complexed (nucleic acid, listed as Homo sapiens)
sense: GGGAAAUAAGAGAGAAAAGAAGAGUAAGAAGAAAUAUAAGAGCCACCAUGAACUUUCUCUUGUCAUGGGUGCACUGGAGCCUUGCGCUGCUGCUGUAUCUUCAUCACGCUAAGUGGAGCCAGGCCGCACCCAUGGCGGAGGGUGGCGGACAGAAUCACCACGAAGUAGUCAAAUUCAUGGACGUGUACCAGAGGUCGUAUUGCCAUCCGAUUGAAACUCUUGUGGAUAUCUUUCAAGAAUACCCCGAUGAAAUCGAGUACAUUUUCAAACCGUCGUGUGUCCCUCUCAUGAGGUGCGGGGGAUGCUGCAAUGAUGAAGGGUUGGAGUGUGUCCCCACGGAGGAGUCGAAUAUCACAAUGCAAAUCAUGCGCAUCAAACCACAUCAGGGUCAGCAUAUUGGAGAGAUGUCCUUUCUCCAGCACAACAAAUGUGAGUGUAGACCGAAGAAGGACCGAGCCCGACAGGAAAACCCAUGCGGACCGUGCUCCGAGCGGCGCAAACACUUGUUCGUACAAGACCCCCAGACAUGCAAGUGCUCAUGUAAGAAUACCGAUUCGCGGUGUAAGGCGAGACAGCUGGAAUUGAACGAGCGCACGUGUAGGUGCGACAAGCCUAGACGGUGAGCUGCCUUCUGCGGGGCUUGCCUUCUGGCCAUGCCCUUCUUCUCUCCCUUGCACCUGUACCUCUUGGUCUUUGAAUAAAGCCUGAGUAGGAAG
modifications: Cap1, polyA, 5mC/pseudoU, Lipofectamine2000 complexed
As to B1, the Protein in the data set with HEK293 cells (amount transfected 2 pg) is 0 pg/mL; in the data set with HEK293 cells (amount transfected 10 pg), 0 pg/mL; in the data set with HEK293 cells (amount transfected 39 pg), 0 pg/mL; in the data set with HEK293 cells (amount transfected 156 pg) it was 189.6 pg/mL; in the data set on HEK293 cells (amount transfected 625 pg) it was 2321.23 pg/mL; with HEK293 cells (amount transfected 2.5 ng) it was 10038 pg/mL. Further, the Protein with HEK293 cells (amount transfected 10 ng) was found to be 10495 pg/mL; in the data set on HEK293 cells (amount transfected 610 fg), 0 pg/mL.

Source of the values: patent US20160193299A1, “MODIFIED NUCLEOSIDE, NUCLEOTIDE, AND NUCLEIC ACID COMPOSITIONS” (Moderna Therapeutics, Inc., priority 2011, published 2016).
